Data published in ChEMBL document CHEMBL1123357, “Chemotherapeutic approaches to the treatment of the acquired immune deficiency syndrome (AIDS)” (1986).
≈ marks a conversion by molar mass, not a printed value.

Legend:
ATH-8 cell line [1] = assay: Minimum inhibitory concentration of the compound, achieving a complete protection of ATH8 cells against the cytopathic effect of HTLV-III / LAV […]; format: functional; details: Homo sapiens
ATH-8 cell line [2] = assay: Selectivity index expressed as ratio of compound concentration required to reduce the growth of normal uninfected ATH8 cells by 50% to the compound concentration (MIC); format: functional, Homo sapiens

Row | SMILES | MIC (ATH-8 cell line [1]) | SI (ATH-8 cell line [2])
1 | Cc1ccc(C(=O)Nc2ccc(S(=O)(=O)O)c3cc(S(=O)(=O)O)cc(S(=O)(=O)O)c23)cc1NC(=O)c1cccc(NC(=O)Nc2cccc(C(=O)Nc3cc(C(=O)Nc4ccc(S(=O)(=O)O)c5cc(S(=O)(=O)O)cc(S(=O)(=O)O)c45)ccc3C)c2)c1 [SURAMIN] | 35 µM (≈ 45.4 µg/mL) | 5
2 | NC(=O)c1ncn([C@@H]2O[C@H](CO)[C@@H](O)[C@H]2O)n1 [RIBAVIRIN] | > 400 µM | <0.3
3 | O=C(O)C1=CC(=C(c2ccc(O)c(C(=O)O)c2)c2ccc(O)c(C(=O)O)c2)C=CC1=O [AURINTRICARBOXYLIC ACID] | 47 µM (≈ 19.9 µg/mL) | >2.5
4 | Cc1cn([C@H]2C[C@H](N=[N+]=[N-])[C@@H](CO)O2)c(=O)[nH]c1=O [ZIDOVUDINE] | 1 µM (≈ 0.267 µg/mL) | >50
5 | O=C(O)P(=O)(O)O [FOSCARNET] | 350 µM (≈ 44.1 µg/mL) | >1
6 | Cc1cc(-c2ccc(/N=N/c3ccc4c(S(=O)(=O)[O-])cc(S(=O)(=O)[O-])c(N)c4c3O)c(C)c2)ccc1/N=N/c1ccc2c(S(=O)(=O)[O-])cc(S(=O)(=O)[O-])c(N)c2c1O.[Na+].[Na+].[Na+].[Na+] [EVANS BLUE] | 26 µM | >4
7 | Nc1ccn([C@H]2CC[C@@H](CO)O2)c(=O)n1 [ZALCITABINE] | 0.5 µM (≈ 0.106 µg/mL) | 50
